# Results taken from US20160257997A1, “METHODS FOR WHOLE-CELL ANALYSIS OF GRAM-POSITIVE BACTERIA” (AdvanDx, Inc., priority 2009, published 2016).
# Tested on: MecA mRNA
# Test: PNA FISH of MecA mRNA in permeabilized S. aureus (Examples 1-3)
# Type: cell-based
sequence,measurement,setting,value
"GCTATCGTGTCACAA (all peptide nucleic acid (PNA); fluorescein label, position not given here; listed as Staphylococcus aureus) [Probe 2, Flu-labeled PNA probe, methicillin-resistance]",fluorescent staining of bacteria (FITC filter),"MRSA 43300, oxacillin-induced, FIG. 1 Slides B-D, Probes 1-5 794 nM combined, Probe 2 750 nM, Probe 6 750 nM",Green fluorescent bacteria were observed
same,"fluorescent staining of bacteria (FITC filter), competition control","MRSA 43300, Probe 2 300 nM in the presence of 16.6-fold excess (5000 nM) of biotin labeled Probe 7, FIG. 1 Slide E",No signal was observed
